# Measured values from ChEMBL document CHEMBL1201862, “PubChem BioAssay data set” (2004).
# Calls of active or inactive are those of the source.
# Experiments:
# [1] = target: T1, Corticotropin-releasing factor receptor 2/Corticotropin-releasing factor-binding protein (Homo sapiens, UniProt P24387+Q13324); assay: activators of CRF receptor 2 with binding protein – uHTS hits, confirmation (AID 602473); assay type: functional; settings: read-out: EC50_Mean
# T1 sequence (Q13324 whole entry): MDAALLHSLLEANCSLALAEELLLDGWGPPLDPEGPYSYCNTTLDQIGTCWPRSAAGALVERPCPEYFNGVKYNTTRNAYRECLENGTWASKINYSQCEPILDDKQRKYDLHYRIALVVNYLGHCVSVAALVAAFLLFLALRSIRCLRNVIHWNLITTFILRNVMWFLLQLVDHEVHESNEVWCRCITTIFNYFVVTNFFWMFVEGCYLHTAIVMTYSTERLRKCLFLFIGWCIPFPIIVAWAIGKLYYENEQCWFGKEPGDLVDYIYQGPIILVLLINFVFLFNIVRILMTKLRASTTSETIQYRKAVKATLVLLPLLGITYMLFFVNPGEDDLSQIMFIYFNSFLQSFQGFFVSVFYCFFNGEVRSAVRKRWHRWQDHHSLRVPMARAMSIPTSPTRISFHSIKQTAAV
# T1 sequence (P24387 whole entry): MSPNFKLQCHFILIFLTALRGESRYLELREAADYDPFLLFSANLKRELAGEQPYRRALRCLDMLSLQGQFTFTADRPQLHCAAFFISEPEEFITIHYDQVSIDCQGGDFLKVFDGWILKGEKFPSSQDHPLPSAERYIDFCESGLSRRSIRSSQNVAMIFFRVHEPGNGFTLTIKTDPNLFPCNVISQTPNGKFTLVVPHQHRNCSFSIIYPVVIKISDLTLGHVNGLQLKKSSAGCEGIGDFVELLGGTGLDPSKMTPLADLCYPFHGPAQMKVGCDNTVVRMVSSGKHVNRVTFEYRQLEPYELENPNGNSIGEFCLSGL
# Protein RecA = target: T2, Protein RecA (Mycobacterium tuberculosis, UniProt P9WHJ3); assay: Fluorescence Cell-Free Homogeneous Dose Retest to Identify Inhibitors of RecA-Intein Splicing Activity. [Related pubchem assays (depositor defined):AID2097, AID2223, AID489010, AID492950]; assay type: functional
# T2 sequence (P9WHJ3 whole entry): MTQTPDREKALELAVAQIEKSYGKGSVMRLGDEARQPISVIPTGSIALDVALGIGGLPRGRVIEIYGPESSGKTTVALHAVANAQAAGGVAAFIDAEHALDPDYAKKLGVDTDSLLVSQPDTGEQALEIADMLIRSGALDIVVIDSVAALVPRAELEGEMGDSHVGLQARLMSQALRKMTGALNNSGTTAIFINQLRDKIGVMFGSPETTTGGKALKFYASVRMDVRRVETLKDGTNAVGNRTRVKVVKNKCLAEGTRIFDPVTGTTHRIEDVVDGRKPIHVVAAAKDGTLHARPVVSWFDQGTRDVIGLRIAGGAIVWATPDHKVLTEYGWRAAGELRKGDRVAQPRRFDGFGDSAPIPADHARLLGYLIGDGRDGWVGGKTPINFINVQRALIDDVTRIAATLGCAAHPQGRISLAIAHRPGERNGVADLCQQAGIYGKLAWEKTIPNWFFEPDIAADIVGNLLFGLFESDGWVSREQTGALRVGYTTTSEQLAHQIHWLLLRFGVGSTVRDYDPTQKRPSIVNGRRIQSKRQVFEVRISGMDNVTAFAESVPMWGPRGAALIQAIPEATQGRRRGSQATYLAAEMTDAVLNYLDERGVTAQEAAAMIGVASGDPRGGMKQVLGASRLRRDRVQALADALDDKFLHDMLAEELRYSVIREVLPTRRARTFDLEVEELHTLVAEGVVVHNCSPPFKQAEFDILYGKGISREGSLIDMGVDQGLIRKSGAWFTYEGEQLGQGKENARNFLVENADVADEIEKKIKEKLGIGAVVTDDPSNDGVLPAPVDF
# [2] = target: T1, Corticotropin-releasing factor receptor 2/Corticotropin-releasing factor-binding protein; assay: Dose Response confirmation of uHTS hits for small molecule antagonists of the CRF-binding protein and CRF-R2 receptor complex.; assay type: functional; settings: read-out: IC50_Mean
# HEK293 [3] = assay: cells; settings: Homo sapiens
# [4] = target: T3, Replicative DNA helicase DnaB (Mycobacterium tuberculosis, UniProt P9WMR3); assay: DnaB intein splicing inhibitors, dose response, biochemical, cell-free fluorescence (AID 449749); assay type: functional
# T3 sequence (P9WMR3 whole entry): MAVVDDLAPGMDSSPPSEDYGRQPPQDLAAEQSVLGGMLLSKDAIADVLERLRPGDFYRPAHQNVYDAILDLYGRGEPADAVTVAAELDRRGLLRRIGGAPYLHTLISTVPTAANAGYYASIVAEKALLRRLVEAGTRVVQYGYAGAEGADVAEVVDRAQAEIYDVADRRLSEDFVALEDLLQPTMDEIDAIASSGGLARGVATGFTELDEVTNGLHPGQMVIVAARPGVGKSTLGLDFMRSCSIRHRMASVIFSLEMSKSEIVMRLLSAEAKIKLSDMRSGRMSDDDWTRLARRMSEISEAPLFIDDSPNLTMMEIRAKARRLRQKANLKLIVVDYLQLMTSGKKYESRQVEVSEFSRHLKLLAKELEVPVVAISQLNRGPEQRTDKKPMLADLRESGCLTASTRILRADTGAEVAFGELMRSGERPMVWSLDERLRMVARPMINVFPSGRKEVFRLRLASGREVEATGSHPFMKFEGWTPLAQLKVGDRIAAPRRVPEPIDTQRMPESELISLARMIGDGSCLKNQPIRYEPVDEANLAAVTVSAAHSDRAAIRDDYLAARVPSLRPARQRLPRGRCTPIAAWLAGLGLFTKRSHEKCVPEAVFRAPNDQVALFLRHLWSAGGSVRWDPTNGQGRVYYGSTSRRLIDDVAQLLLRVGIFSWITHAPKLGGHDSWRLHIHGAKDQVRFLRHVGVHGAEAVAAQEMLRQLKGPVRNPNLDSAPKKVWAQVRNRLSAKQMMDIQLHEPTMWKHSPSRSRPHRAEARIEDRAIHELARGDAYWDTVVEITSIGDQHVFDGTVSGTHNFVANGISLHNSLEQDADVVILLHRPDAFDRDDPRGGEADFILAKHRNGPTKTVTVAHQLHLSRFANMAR
# HEK293 [5] = assay: cells; settings: Homo sapiens; remark: listed apart in the source
# [6] = microbe, parasite or virus in culture; assay type: functional; settings: Mycobacterium tuberculosis
# [7] = target: Voltage-gated N-type calcium channel alpha-1B subunit/Amyloid beta A4 precursor protein-binding family A member 1 (Homo sapiens, UniProt Q00975+Q02410); assay: disruptors of Mint-PDZ/N-type channel peptide interaction – biochemical, HTRF, set 2, SAR follow-up (AID 434980); assay type: functional
# [8] = target: Glucose-6-phosphate 1-dehydrogenase (Homo sapiens, UniProt P11413); assay: inhibition of Homo sapiens G6PD, dose series – biochemical, fluorescence, selectivity assay for P. falciparum G6PD inhibitor project, dose response (AID 504792); assay type: functional
# [9] = target: T4, Heat shock factor protein 1 (Mus musculus, UniProt P38532); assay: decrease of HSF1-responsive luciferase luminescence – cell-based, NIH3T3, dose retest, confirmation (AID 2382); assay type: functional;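 also: NIH3T3 fibroblasts with HSF1-driven luciferase reporter stressed by proteasome inhibitor MG132; luminescence from HSF1-driven luciferase expression after 8 hours of MG132 stress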
# T4 sequence (P38532 whole entry): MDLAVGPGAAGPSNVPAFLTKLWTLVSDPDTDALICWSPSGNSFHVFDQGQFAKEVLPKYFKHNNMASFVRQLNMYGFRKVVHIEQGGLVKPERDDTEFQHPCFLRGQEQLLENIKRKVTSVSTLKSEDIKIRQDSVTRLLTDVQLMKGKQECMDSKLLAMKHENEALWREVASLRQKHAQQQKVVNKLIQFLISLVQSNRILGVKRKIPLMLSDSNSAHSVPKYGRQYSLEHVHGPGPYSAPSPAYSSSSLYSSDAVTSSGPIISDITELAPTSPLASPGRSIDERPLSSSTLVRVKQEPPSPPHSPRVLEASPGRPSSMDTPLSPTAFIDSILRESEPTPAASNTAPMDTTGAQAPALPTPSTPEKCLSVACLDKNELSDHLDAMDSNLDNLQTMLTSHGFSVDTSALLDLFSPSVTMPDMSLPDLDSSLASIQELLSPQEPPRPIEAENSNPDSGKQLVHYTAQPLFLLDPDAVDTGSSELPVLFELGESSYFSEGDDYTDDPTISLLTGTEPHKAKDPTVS
# [10] = target: DNA dC->dU-editing enzyme APOBEC-3G (Homo sapiens, UniProt Q9HC16); assay: Dose Response confirmation of small molecule APOBEC3G DNA Deaminase Inhibitors via a fluorescence-based single-stranded DNA deaminase assay. [Related pubchem assays (depositor defined):AID493012, AID493028]; assay type: functional
# Coagulation factor XII = target: T5, Coagulation factor XII (Homo sapiens, UniProt P00748); assay type: functional;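 also: activated factor XIIa alpha cleaving a fluorogenic AMC peptide substrate; inhibitor potency from loss of enzyme activity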
# T5 sequence (P00748 whole entry): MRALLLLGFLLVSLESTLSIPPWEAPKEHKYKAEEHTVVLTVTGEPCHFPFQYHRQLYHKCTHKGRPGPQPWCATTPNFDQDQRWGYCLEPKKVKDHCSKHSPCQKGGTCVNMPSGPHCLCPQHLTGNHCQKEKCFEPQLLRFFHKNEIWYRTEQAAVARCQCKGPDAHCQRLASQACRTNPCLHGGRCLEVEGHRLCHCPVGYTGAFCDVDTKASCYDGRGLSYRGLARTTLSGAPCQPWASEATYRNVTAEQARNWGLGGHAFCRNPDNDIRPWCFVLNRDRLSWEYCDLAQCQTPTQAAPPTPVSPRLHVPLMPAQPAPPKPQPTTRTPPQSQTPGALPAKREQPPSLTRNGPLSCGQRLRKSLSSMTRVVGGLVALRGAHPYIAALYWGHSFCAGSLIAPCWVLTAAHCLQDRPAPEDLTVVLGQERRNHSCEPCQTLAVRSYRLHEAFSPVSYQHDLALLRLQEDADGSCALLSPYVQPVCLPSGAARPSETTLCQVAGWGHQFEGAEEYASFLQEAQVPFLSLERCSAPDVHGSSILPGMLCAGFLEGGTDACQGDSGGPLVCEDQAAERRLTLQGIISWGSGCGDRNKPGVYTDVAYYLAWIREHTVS
# Vero [11] = assay: cells; assay type: functional; settings: Chlorocebus sabaeus
# [12] = target: Heat shock protein HSP 90-alpha (Homo sapiens, UniProt P07900); assay type: functional, organism-based
# [13] = target: Voltage-dependent T-type calcium channel subunit alpha-1H (Homo sapiens, UniProt O95180); assay type: functional;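 also: channel activity triggered by adding a high calcium stimulation buffer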
# Vero [14] = assay: cells; assay type: functional, cell-based; settings: Chlorocebus sabaeus
# Cytochrome P450 2C9 = Cytochrome P450 2C9 (Homo sapiens, UniProt P11712)
# Estrogen receptor beta = Estrogen receptor beta (Homo sapiens, UniProt Q92731); assay: blockers of SRC-3 recruitment to ERβ – biochemical, ELISA, streptavidin-HRP readout, orthogonal assay, confirmation (AID 1060)
# [15] = target: Peroxisome proliferator-activated receptor gamma/Nuclear receptor coactivator 2 (Homo sapiens, UniProt P37231); assay type: functional;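 also: agonist potency for raising coactivator recruitment to the receptor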
# [16] = target: Peroxisome proliferator-activated receptor gamma/Nuclear receptor coactivator 3 (Homo sapiens, UniProt P37231); assay type: functional;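 also: agonist potency for raising coactivator recruitment to the receptor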
# [17] = target: Peroxisome proliferator-activated receptor gamma/Nuclear receptor coactivator 1 (Homo sapiens, UniProt P37231); assay type: functional;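 also: agonist potency as compounds enhance coactivator SRC-1 recruitment to PPARgamma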
# cells [18] = assay type: functional, cell-based
# cells [19] = assay type: functional, cell-based; remark: listed apart in the source
# Sequence of Peroxisome proliferator-activated receptor gamma/Nuclear receptor coactivator 1 (P37231 whole entry): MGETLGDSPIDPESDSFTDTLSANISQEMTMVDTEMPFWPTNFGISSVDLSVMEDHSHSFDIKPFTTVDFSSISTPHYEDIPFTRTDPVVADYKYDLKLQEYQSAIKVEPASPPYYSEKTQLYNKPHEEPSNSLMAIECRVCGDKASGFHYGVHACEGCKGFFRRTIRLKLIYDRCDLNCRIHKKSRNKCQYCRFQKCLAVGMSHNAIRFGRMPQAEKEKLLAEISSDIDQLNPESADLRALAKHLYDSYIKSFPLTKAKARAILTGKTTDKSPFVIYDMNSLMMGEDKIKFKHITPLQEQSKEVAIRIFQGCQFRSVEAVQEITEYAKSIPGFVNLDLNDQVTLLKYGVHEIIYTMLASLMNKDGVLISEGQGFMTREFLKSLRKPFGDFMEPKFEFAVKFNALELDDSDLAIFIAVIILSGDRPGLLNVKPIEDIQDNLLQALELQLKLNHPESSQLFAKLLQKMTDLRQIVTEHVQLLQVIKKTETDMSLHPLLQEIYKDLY
# Sequence of Peroxisome proliferator-activated receptor gamma/Nuclear receptor coactivator 1 (Q15788 whole entry, further chain): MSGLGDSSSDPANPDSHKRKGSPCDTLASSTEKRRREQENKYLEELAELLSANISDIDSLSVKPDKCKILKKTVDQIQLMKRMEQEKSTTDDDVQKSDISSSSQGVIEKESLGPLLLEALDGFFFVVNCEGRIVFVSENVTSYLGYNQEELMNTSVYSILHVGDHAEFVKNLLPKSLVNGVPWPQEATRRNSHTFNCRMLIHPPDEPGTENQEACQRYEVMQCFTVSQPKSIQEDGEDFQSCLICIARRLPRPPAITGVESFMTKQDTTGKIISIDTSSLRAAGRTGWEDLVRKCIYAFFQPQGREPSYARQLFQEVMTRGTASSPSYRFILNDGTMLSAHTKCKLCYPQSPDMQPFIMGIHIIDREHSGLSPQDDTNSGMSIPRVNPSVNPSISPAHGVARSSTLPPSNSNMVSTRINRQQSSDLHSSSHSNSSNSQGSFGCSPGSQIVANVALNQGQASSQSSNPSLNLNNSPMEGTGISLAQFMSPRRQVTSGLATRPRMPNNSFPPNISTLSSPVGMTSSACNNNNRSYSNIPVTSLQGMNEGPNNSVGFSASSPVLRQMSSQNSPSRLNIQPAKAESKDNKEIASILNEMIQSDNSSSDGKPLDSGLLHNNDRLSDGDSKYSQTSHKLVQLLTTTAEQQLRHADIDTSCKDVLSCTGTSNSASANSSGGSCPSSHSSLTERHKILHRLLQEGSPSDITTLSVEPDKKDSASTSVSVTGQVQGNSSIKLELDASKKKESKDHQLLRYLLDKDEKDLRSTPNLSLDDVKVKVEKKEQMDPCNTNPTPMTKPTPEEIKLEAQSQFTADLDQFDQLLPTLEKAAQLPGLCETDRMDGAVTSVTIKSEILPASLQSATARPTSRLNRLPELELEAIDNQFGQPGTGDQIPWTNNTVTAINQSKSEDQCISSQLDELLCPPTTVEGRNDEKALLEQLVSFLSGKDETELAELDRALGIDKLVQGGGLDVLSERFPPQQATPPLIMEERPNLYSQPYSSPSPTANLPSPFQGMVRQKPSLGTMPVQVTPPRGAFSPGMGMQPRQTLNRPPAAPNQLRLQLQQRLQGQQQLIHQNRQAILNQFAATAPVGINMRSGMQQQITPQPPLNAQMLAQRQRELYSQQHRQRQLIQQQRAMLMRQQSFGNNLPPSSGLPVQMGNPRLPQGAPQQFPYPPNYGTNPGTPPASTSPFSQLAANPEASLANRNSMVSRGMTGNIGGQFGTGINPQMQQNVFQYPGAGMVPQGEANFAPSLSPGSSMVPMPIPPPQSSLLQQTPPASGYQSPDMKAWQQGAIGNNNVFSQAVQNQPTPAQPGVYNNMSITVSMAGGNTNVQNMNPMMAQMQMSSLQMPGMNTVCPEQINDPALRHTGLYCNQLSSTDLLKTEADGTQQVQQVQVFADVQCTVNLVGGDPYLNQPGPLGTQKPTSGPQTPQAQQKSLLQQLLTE
# Sequence of Peroxisome proliferator-activated receptor gamma/Nuclear receptor coactivator 3 (P37231 whole entry): as the sequence (P37231 whole entry) above
# Sequence of Peroxisome proliferator-activated receptor gamma/Nuclear receptor coactivator 3 (Q9Y6Q9 whole entry, further chain): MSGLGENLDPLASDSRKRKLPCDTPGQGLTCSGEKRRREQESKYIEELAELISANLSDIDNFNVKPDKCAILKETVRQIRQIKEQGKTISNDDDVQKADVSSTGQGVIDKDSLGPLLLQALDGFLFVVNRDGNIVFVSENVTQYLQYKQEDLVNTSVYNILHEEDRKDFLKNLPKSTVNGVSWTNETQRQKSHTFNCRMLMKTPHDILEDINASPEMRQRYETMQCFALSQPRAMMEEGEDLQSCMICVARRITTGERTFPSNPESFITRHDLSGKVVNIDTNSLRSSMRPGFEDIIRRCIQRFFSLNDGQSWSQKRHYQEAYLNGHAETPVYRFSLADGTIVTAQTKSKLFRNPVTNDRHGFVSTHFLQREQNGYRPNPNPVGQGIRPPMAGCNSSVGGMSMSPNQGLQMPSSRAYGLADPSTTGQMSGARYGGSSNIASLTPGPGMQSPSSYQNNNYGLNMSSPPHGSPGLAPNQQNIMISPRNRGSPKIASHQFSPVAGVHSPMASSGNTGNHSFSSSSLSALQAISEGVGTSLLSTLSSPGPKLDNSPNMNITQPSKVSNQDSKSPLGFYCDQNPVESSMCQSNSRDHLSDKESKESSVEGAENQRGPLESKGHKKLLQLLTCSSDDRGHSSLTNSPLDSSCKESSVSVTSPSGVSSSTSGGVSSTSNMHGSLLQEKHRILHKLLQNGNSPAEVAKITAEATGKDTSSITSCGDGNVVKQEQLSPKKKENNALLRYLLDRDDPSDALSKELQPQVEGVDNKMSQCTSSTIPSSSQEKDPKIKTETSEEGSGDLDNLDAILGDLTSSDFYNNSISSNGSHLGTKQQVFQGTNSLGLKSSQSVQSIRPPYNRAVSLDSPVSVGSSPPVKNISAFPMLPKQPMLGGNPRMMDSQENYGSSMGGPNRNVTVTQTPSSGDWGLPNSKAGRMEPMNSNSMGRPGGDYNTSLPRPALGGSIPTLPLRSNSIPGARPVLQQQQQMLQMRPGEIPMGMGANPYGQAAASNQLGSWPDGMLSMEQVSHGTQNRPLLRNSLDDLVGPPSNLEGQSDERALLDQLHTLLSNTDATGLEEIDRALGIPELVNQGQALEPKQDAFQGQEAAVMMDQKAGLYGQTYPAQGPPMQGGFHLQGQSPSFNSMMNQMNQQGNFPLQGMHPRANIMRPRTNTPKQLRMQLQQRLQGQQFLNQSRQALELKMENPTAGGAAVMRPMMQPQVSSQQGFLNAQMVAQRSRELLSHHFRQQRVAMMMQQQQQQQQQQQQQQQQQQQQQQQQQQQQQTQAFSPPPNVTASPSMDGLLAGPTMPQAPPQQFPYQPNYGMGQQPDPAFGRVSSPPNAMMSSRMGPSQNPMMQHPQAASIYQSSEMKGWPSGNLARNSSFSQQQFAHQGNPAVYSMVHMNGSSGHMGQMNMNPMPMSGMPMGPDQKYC
# Sequence of DNA dC->dU-editing enzyme APOBEC-3G (Q9HC16 whole entry): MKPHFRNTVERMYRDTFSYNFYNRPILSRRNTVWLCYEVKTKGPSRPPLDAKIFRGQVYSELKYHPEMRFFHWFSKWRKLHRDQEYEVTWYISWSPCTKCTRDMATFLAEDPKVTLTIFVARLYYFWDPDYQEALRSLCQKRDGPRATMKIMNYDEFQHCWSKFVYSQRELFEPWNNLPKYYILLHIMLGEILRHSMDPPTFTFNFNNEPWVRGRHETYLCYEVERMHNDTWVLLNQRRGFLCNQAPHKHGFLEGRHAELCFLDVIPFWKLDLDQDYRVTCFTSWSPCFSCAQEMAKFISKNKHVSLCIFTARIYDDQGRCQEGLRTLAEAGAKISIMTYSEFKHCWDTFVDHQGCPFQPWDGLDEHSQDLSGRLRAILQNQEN
# Sequence of Glucose-6-phosphate 1-dehydrogenase (P11413 whole entry): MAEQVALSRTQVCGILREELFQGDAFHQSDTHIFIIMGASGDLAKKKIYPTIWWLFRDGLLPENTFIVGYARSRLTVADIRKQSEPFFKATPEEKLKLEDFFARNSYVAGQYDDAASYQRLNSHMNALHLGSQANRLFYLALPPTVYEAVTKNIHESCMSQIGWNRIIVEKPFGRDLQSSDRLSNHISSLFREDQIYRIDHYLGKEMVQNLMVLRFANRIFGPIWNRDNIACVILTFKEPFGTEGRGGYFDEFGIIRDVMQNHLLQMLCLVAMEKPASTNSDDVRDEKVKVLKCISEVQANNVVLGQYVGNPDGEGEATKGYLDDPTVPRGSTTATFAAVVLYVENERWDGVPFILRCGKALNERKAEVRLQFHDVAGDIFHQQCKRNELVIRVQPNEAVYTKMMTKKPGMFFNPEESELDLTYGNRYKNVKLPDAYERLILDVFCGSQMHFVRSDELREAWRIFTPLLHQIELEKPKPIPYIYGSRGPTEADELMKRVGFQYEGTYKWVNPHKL
structure (smiles),measurement,setting,value
COC(=O)CN1C(c2ccc(Cl)cc2)=Nc2ccc(Cl)cc2C1c1ccccc1 (configuration not stated),EC50,[1],> 53 µM (inactive)
same,EC50,Protein RecA,55.9 µM (inconclusive)
same,IC50,[2],> 47.1 µM (inactive)
same,EC50,HEK293 [3],> 59.6 µM (inactive)
same,AC50,[4],4.24 µM (active)
same,EC50,HEK293 [5],> 59.6 µM (inactive)
same,CC50,[6],> 40 µM (active)
CC(C)(C)c1ccc(CNC(=O)c2cc(-c3ccco3)nc3ccccc23)cc1,IC50,[7],39.5 µM (active)
O=C(Nc1nnc(S(=O)(=O)N2CCCCCC2)s1)c1cccc(Br)c1,IC50,[8],78.9 µM (inactive)
same,EC50,[9],> 195 µM (not active)
COc1cc(/C=N/n2c(S)nnc2-c2ccccc2)cc(OC)c1O,IC50,[10],> 100 µM (inactive)
CCO/C(O)=C1\C(C)=NC(=S)N(C(C)=O)C1c1ccc(OC)c(OC)c1 (configuration not stated),IC50,Coagulation factor XII,> 50 µM (inactive)
Nc1c(C(=O)Nc2ccc(F)cc2)sc(=S)n1-c1ccccc1F,IC50,[8],> 80 µM (inactive)
CC(C)N1CCN(c2ccc(OC[C@H]3CO[C@](Cn4cncn4)(c4ccc(Cl)cc4Cl)O3)cc2)CC1 [TERCONAZOLE],CC50,Vero [11],22.1 µM (active)
same,AC50,[12],1.41 µM (active)
CC(C)(C)n1ncc2c(=O)n(CC(=O)Nc3ccc(Cl)cc3)cnc21,EC50,[13],4.08 µM (active)
Nc1ccccc1SC(C[N+](=O)[O-])c1ccccc1 (configuration not stated),IC50,[10],28.2 µM (active)
CCC1=NN(C(=O)Cc2ccc([N+](=O)[O-])cc2)C(O)(C(F)(F)F)C1 (configuration not stated),IC50,Coagulation factor XII,> 50 µM (inactive)
CCC(C)NC(=O)CSc1ncnc2sccc12 (configuration not stated),IC50,Coagulation factor XII,> 50 µM (inactive)
O=C1CCCCC1Nc1ccc2ccccc2c1 (configuration not stated),IC50,Vero [14],> 12.5 µM (active)
O=C(Oc1ccc2ccccc2c1Br)N1CCCCCC1,CC50,Vero [11],> 25 µM (active)
same,AC50,Cytochrome P450 2C9,25.1 µM (inconclusive)
same,IC50,Vero [14],4.26 µM (active)
N#Cc1cc2c(nc1SCc1ccccc1)CCC2,IC50,Estrogen receptor beta,0.0254 µM (not active)
same,EC50,[15],45.2 µM (not active)
same,EC50,[16],56.6 µM (not active)
same,EC50,[17],41 µM (not active)
O=C(N[C@@H]1C[C@H]1c1ccccc1)c1cc(-c2ccco2)nc2ccccc12,IC50,[7],46.4 µM (active)
CCOc1ccc(N(CC(=O)Nc2cc(C)ccc2C)S(=O)(=O)c2c(C)nc(O)nc2O)cc1,IC50,Coagulation factor XII,> 50 µM (inactive)
O=C(CSc1nnc(CNC(=O)c2cccs2)o1)Nc1cccc(C(F)(F)F)c1,EC50,[13],4.46 µM (active)
COc1cc(C2CC(=O)N3CN(Cc4ccccc4)CSC3=C2C#N)ccc1OCc1ccccc1 (configuration not stated),EC50,[15],> 79.4 µM (not active)
same,EC50,cells [18],40.3 µM (active)
same,EC50,cells [19],> 350 µM (not active)
same,EC50,[16],> 79.4 µM (not active)
same,EC50,[17],> 79.4 µM (not active)
COc1ccc(C2C=C(C34CC5CC(CC(C5)C3)C4)N=C(S)N2)cc1OC (configuration not stated),EC50,HEK293 [3],> 59.6 µM (inactive)
same,EC50,HEK293 [5],> 59.6 µM (inactive)
